In patent US20070179161A1, “Pyrazolopyrimidine compounds and their use in medicine” (VERNALIS (CAMBRIDGE) LIMITED., priority 2003, published 2007):
pIC50: −log10 of the molar value. Structures can show the parent of a compound that is named as a salt. Where two headings read alike, the source gives them in different places.

Assays:
Assay type in all cases: biochemical
[1] = target: CDK-2 enzyme, complexed with cyclin A (Homo sapiens, UniProt P24941); test: CDK2 enzyme inhibition assay (33P phosphorylation of peptide […], filter plate); conditions: CDK-2/cyclin A, 0.1 mM ATP, 40 min at 30° C.
Procedure: (§1) The assay mixture containing the inhibitor and CDK-2 enzyme, complexed with cyclin A (0.4 U/ml) was mixed together in a microtiter plate in a final volume of 50 μl and incubated for 40 min at 30° C. The assay mixture contained 0.1 mM unlabeled ATP, 0.01 μCi/μl ^33P-γ-ATP, 0.03 mM peptide, 0.1 mg/ml BSA, 7.5 mM magnesium acetate, 50 mM HEPES-NaOH, pH 7.5. The reaction was stopped by adding 50 μl of 50 mM phosphoric acid. 90 μl of the mixture were transferred to a pre-wetted 96-well Multiscreen MAPHNOB filtration plate (Millipore) and filtered on a vacuum manifold. […] The filtration plate was dried for 10 min at 65° C., scintillant added and phosphorylated peptide quantified in a scintillation counter (Trilux, PerkinElmer)
HEPES is N-[2-Hydroxyethyl]piperazine-N′-[2-ethanesulfonic acid] BSA is bovine serum albumin.

GST-Chk1 enzyme = target: T1, GST-Chk1 enzyme (Homo sapiens, UniProt O14757); test: Chk1 kinase inhibition assay (33P phosphorylation of Chktide, filter plate); conditions: 0.01 mM ATP, 11 nM GST-Chk1, 40 minutes at 30° C.; for pIC50: read-out: Chk1 IC50
T1 sequence (O14757 1-476): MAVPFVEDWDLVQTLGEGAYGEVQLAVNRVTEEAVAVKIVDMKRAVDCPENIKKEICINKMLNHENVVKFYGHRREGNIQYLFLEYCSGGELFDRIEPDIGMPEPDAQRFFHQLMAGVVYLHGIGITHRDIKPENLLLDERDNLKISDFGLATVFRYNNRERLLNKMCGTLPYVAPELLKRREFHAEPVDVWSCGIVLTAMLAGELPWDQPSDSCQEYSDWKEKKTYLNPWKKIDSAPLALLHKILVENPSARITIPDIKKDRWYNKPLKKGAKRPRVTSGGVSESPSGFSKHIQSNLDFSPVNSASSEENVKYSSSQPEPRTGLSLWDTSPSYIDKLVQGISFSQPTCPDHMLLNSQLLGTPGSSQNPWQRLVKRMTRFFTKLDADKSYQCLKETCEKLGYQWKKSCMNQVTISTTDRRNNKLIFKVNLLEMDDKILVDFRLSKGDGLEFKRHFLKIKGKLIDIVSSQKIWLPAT
Procedure: The assay mixture containing the inhibitor and Chk1 enzyme was mixed together in a microtiter plate in a final volume of 50 μl and incubated for 40 minutes at 30° C.
The reaction was stopped by adding 50 μl of 50 mM phosphoric acid. 90 μl of the mixture was transferred to a pre-wetted 96-well Multiscreen MAPHNOB filtration plate (Millipore) and filtered on a vacuum manifold. […] The filtration plate was dried for 10 min at 65° C., scintillant added and phosphorylated peptide quantified in a scintillation counter (Trilux, PerkinElmer)

PDK1 enzyme = target: T2, PDK1 enzyme (Homo sapiens, UniProt O15530); test: PDK1 kinase inhibition assay (33P phosphorylation of synthetic peptide, filter plate); conditions: 0.01 mM ATP, 60 min at 30° C.; for pIC50: read-out: PDK1 IC50
T2 sequence (O15530 1-556): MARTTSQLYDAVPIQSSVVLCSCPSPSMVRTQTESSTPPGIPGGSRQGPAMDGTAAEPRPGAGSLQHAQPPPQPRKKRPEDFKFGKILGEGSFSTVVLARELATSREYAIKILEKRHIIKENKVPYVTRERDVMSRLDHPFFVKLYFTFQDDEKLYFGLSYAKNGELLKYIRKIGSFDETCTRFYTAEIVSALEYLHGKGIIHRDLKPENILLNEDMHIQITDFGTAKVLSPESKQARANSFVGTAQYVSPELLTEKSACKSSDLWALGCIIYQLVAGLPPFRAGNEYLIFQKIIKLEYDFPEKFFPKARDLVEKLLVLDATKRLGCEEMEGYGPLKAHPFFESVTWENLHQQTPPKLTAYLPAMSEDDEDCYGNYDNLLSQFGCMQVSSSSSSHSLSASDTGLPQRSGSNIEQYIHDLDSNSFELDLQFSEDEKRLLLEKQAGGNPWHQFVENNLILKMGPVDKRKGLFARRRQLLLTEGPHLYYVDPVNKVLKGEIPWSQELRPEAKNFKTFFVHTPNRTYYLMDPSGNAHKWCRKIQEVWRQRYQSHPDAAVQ
Procedure: as §1, with “and PDK1 enzyme” for “and CDK-2 enzyme, complexed with cyclin A (0.4 U/ml)”, “for 60” for “for 40”, “contained 0.01” for “contained 0.1”, “^33P-γ-ATP, 0.075” for “^33P-γ-ATP, 0.03”, “acetate, 0.05M Tris.HCl,” for “acetate, 50 mM HEPES-NaOH,”, “pH 7.5, 0.5% 2-mercaptoethanol.” for “pH 7.5.”

| SMILES | pIC50 [1] | pIC50 (PDK1 enzyme) | also measured |
| --- | --- | --- | --- |
| Fc1ccc(Nc2cc(-c3ccccc3)nc3ccnn23)cc1 [Example 1, 5-Phenyl-7-(4-fluorophenylamino)pyrazolo[1,5-a]pyrimidine hydrochloride] | 5.22 | < 3.70 | pIC50 (GST-Chk1 enzyme): < 3.70 |
| Cc1noc(C)c1-c1cc(Nc2ccc(F)cc2)n2nccc2n1 [Example 2, 5-(3,5-Dimethylisoxazole)-7-(4-fluorophenylamino)pyrazolo[1,5-a]pyrimidine] | 4.87 | < 3.70 | pIC50 (GST-Chk1 enzyme): < 3.70 |
| Brc1cccc(-c2cc(NCc3ccncc3)n3nccc3n2)c1 [Example 3] | – | 4.46 | pIC50 (GST-Chk1 enzyme): 4.53 |
| Oc1ccc(-c2cc(Nc3ccccc3)n3nccc3n2)cc1 [Example 4] | 5.42 | < 3.70 | pIC50 (GST-Chk1 enzyme): < 3.70 |
| CS(=O)(=O)c1ccc(Nc2cc(Cl)nc3ccnn23)cc1 [Example 15] | – | – | IC50 (GST-Chk1 enzyme; Chk1 IC50(μM)): > 200 µM; IC50 (PDK1 enzyme; PDK1 IC50(μM)): > 200 µM |
| CS(=O)(=O)c1ccc(Nc2ccnc3ccnn23)cc1 [Example 19] | 4.98 | < 3.70 | – |
| CC(C)c1cnn2c(Nc3ccc(S(=O)(=O)N(C)C)cc3)cc(N[C@H]3CC[C@H](N)CC3)nc12 [Example 30, 3-isopropyl-5-(trans-4-aminocyclohexylamino)-7-(4-(N,N-dimethylsulphonamido)phenylamino)pyrazolo[1,5-a]pyrimidine] | – | 4.70 | pIC50 (GST-Chk1 enzyme): 5.26 |
| CC(C)c1cnn2c(Nc3ccc(S(=O)(=O)N(C)C)cc3)cc(N[C@H]3CC[C@@H](N)CC3)nc12 [Example 116] | – | 6.27 | pIC50 (GST-Chk1 enzyme): 5.66 |
| CC(C)c1cnn2c(Nc3ccc(S(=O)(=O)N(C)C)cc3)cc(N3CCC(N)C3)nc12 (stereo not drawn) [Example 129] | 5.70 | – | – |
| CC(C)c1cnn2c(Nc3ccc(S(=O)(=O)N(C)C)cc3)cc(C(=O)N3CCC(N4CCCC4)CC3)nc12 [Example 130] | 4.92 | – | – |
| CC(C)c1cnn2c(Nc3ccc(S(=O)(=O)N(C)C)cc3)cc(C(=O)N3CCC(CN)CC3)nc12 [Example 131] | 5.03 | – | – |
| CC(C)c1cnn2c(Nc3ccc(S(=O)(=O)N(C)C)cc3)cc(N[C@H]3CCCC[C@H]3N)nc12 [Example 132] | 5.44 | 4.98 | – |
| CNC(=O)C1CCN(C(=O)c2cc(Nc3ccc(S(=O)(=O)N(C)C)cc3)n3ncc(C(C)C)c3n2)CC1 [Example 133] | 5.29 | – | – |
| N[C@H]1CC[C@H](Nc2cc(Nc3ccc(S(=O)(=O)c4ccccc4)cc3)n3ncc(Br)c3n2)CC1 [Example 137] | – | 5.98 | pIC50 (GST-Chk1 enzyme): 6.14 |
| CC(C)c1cnn2c(NC3CCN(C(=O)OC(C)(C)C)CC3)cc(Cl)nc12 [Example 153] | 5.46 | – | – |
| CC(C)c1cnn2c(Nc3ccc(S(=O)(=O)N(C)C)cc3)cc(CN3CCC(O)CC3)nc12 [Example 170] | 5.74 | < 3.70 | – |
| CCc1cnn2c(Nc3ccc(S(=O)(=O)N(C)C)cc3)cc(NC3CC(C)(C)NC(C)(C)C3)nc12 [Example 175] | 4.65 | 4.89 | – |
| N[C@H]1CC[C@@H](Nc2cc(Nc3ccc(S(=O)(=O)Nc4nccs4)cc3)n3ncc(Br)c3n2)CC1 [Example 177] | – | 6.18 | – |
| CC1(C)CC(Nc2cc(Nc3ccc(S(=O)(=O)N4CCCC4)cc3)n3ncc(Br)c3n2)CC(C)(C)N1 [Example 179] | 4.62 | 5.34 | – |
| CN(C)S(=O)(=O)c1ccc(Nc2cc(N[C@H]3CC[C@@H](N)CC3)nc3c(S(C)(=O)=O)cnn23)cc1 [Example 200] | 4.95 | – | – |

Continued by rising pIC50 [1], values first:

| pIC50 [1] | pIC50 (PDK1 enzyme) | SMILES | also measured |
| --- | --- | --- | --- |
| 5.87 | – | CC(C)c1cnn2c(Nc3ccc(S(=O)(=O)N(C)C)cc3)cc(C(=O)N3CCC(N)CC3)nc12 [Example 123] | pIC50 (GST-Chk1 enzyme): < 3.70 |
| 5.93 | – | CC(C)c1cnn2c(NC3CCN(S(=O)(=O)C(C)C)CC3)cc(Cl)nc12 [Example 159] | – |
| 6.10 | – | CCc1cnn2c(Nc3ccc(C(=O)NCCN(CC)CC)cc3)cc(Cl)nc12 [Example 152] | pIC50 (GST-Chk1 enzyme): 4.49 |
| 6.26 | – | CC(C)c1cnn2c(Nc3ccc(S(=O)(=O)N(C)C)cc3)cc(CO)nc12 [Example 146] | – |
| 6.61 | 5.52 | O=S(=O)(c1ccccc1)c1ccc(Nc2cc(N[C@H]3CC[C@H](O)CC3)nc3c(Br)cnn23)cc1 [Example 182] | – |
| 6.62 | – | CC(C)c1cnn2c(Nc3ccc(S(=O)(=O)N(C)C)cc3)cc(Cl)nc12 [Example 27] | – |
| 6.62 | – | CN(C)S(=O)(=O)c1ccc(Nc2cc(O[C@@H]3CCNC3)nc3c(Cl)cnn23)cc1 [Example 195] | pIC50 (GST-Chk1 enzyme): 5.11 |
| 6.64 | < 4.30 | CS(=O)(=O)c1ccc(Nc2cc(Cl)nc3c(Br)cnn23)cc1 [Example 144] | – |
| 6.64 | – | Clc1cc(NCc2ccncc2)n2ncc(Br)c2n1 [Example 161] | – |
| 6.69 | 4.80 | O=S(=O)(c1ccccc1)c1ccc(Nc2cc(Cl)nc3c(Br)cnn23)cc1 [Example 136] | – |
| 6.74 | 5.49 | O=S(=O)(c1ccc(Nc2cc(N[C@H]3CC[C@H](O)CC3)nc3c(Br)cnn23)cc1)N1CCCC1 [Example 176] | – |
| 6.75 | < 4.30 | CN1CCN(S(=O)(=O)c2ccc(Nc3cc(Cl)nc4c(Br)cnn34)cc2)CC1 [Example 139] | – |
| 6.85 | – | CNCCNC(=O)c1cc(Nc2ccc(S(=O)(=O)N(C)C)cc2)n2ncc(C(C)C)c2n1 [Example 155] | pIC50 (GST-Chk1 enzyme): 4.28 |
| 6.96 | 4.42 | CCc1cnn2c(Nc3ccc(S(=O)(=O)Nc4nccs4)cc3)cc(Cl)nc12 [Example 151] | – |
| 6.97 | – | Clc1cccc(Nc2cc(Cl)nc3c(Br)cnn23)c1 [Example 160] | – |
| 7.01 | 5.47 | CN(C)S(=O)(=O)c1ccc(Nc2cc(N[C@H]3CC[C@H](N)CC3)nc3ccnn23)cc1 [Example 169] | – |
| 7.05 | – | O=S(=O)(c1ccc(Nc2cc(Cl)nc3c(Cl)cnn23)cc1)c1cccs1 [Example 188] | – |
| 7.18 | < 3.70 | CCc1cnn2c(Nc3ccc(S(=O)(=O)N4CCCC4)cc3)cc(Cl)nc12 [Example 142] | – |
| 7.28 | – | CC(C)c1cnn2c(Nc3ccc(S(=O)(=O)N(C)CCN(C)C)cc3)cc(Cl)nc12 [Example 68] | – |
| 7.34 | – | N[C@H]1CC[C@H](Nc2cc(Nc3ccc(Oc4ccc(F)cc4)cc3)n3ncc(Cl)c3n2)CC1 [Example 190] | – |
| 7.55 | – | N[C@H]1CC[C@H](Nc2cc(Nc3ccc(Oc4cccnc4)cc3)n3ncc(Cl)c3n2)CC1 [Example 189] | – |
| 7.59 | 5.35 | CC(C)c1cnn2c(Nc3ccc(S(N)(=O)=O)cc3)cc(N[C@H]3CC[C@H](N)CC3)nc12 [Example 134] | – |
| 8.30 | – | CN(C)S(=O)(=O)c1ccc(Nc2cc(O[C@H]3CC[C@H](N)CC3)nc3c(Br)cnn23)cc1 [Example 158] | – |
